Results from paper PMC11203957, “Naphthoquinone-Quinolone Hybrids with Antitumor Effects on Breast Cancer Cell Lines—From the Synthesis to 3D-Cell Culture Effects” (International Journal of Molecular Sciences, 2024).
Values belong to the molecule of their own block, whether it stands above or below them.

Tests used:
[1] = system: human gastric cancer cells (MKN-74); set-up: method as in PMID 23651559, PMID 25457491; conditions: cited from earlier work
[2] = system: colorectal cancer cells (HCT-15); set-up: method as in PMID 23651559, PMID 25457491; conditions: cited from earlier work
[3] = system: HCT-15 cocultured with stromal cells CCd-18Co; set-up: method as in PMID 23632919; conditions: coculture with stromal cells; cited from earlier work
[4] = system: MKN-74 cocultured with stromal cells Hs738; set-up: method as in PMID 23632919; conditions: coculture with stromal cells; cited from earlier work
[5] = system: MCF-7 human breast cancer cells; set-up: method as in PMID 33039723; conditions: cited from earlier work
MDA-MB-231 [6] = system: MDA-MB-231; set-up: method as in PMID 30129412; conditions: cited from earlier work
4T1 = system: 4T1; set-up: method as in PMID 30129412; conditions: cited from earlier work
MCF-7 [7] = system: MCF-7; set-up: method as in PMID 30129412; conditions: cited from earlier work
[8] = system: non-cancerous cell line MCF10A; set-up: method as in PMID 30129412; conditions: cited from earlier work
MDA-MB-231 cells [9] = assay: Clonogenic assay, MDA-MB-231; assay type: cell-based, human; conditions: 25 µM, 24 h treatment, about 14 days growth
Text: The clonogenic assay is an effective tool for investigating individual cells’ ability to form colonies. Tumor cells with the ability to generate an expanding family of descendants are clonogenic. Therefore, a clonogenic assay is a simple method to verify one of the important characteristics of cancer cells, which is the ability to detach from the site of origin and to form metastases in other locations. […] For instance, 90–99% of the tumor cells in FaDU tumors, a type of human squamous cell carcinoma observed in nude mice, are non-clonogenic. To achieve the main goal of cancer treatment, which is tumor eradication, it is necessary to inactivate all clonogenic cells through either cell killing or the induction of a permanent state of dormancy, thereby eliminating their clonogenic capacity. The assessment of the potential of a drug to achieve a curative outcome, i.e., effectively neutralizing clonogenic tumor cells, requires the utilization of experimental endpoints that accurately reflect the response of clonogenic cells. Clonogenic endpoints hold particular significance when novel anticancer agents are incorporated into curative therapeutic regimens, such as in combination with radiotherapy or chemotherapy. Thus, clonogenic assays were conducted for compounds 11a–f and 1,4-naphthoquinone.
Figure 6 The inhibition of colony formation by compounds 11a–f using MCF-7 (A,C) and MDA-MB-231 (B,D) cell lines. Cells were treated with derivatives 11a–f at 25 µM for 24 h. Subsequently, 400 cells were plated on 6-well plates for approximately 14 days. Then, cells were stained with crystal violet dye to visualize the colonies formed.

MCF-7 cells = assay: Annexin V/PI apoptosis assay, MCF-7; assay type: cell-based, human; conditions: 50 µM
Procedure: (§1) We investigated apoptosis induction through the annexin V/PI protocol, as described in Section 3. Doxorubicin, 1,4-naphthoquinone, and cisplatin were used as controls. […] For MDA-MB-231 cells (Figure 5B), the effects observed were more prominent at the concentrations tested.
(§2) For the apoptosis assay, the manufacturer’s instructions were followed (Dead Cell Apoptosis Kit with Annexin V for Flow Cytometry, Thermo Fisher Scientific, MA, USA). The cells were analyzed in a Countess II FL cell counter (Thermo Fisher Scientific, Waltham, MA, USA).
(§3) Figure 5 Naphthoquinone-quinolone hybrids induce apoptosis in MCF-7 (A) and MDA-MB-231 (B) cells at different levels.

MCF-7 [10] = assay: MTT cell viability assay, MCF-7 (2D culture); assay type: cell-based, human; conditions: for IC50: Homo sapiens, MCF7, MTT, 24 h treatment, 2D culture, read-out: IC50 ± SEM MCF-7; for SI IC50 MCF10A/IC50 MCF-7: selectivity index
Procedure: (§4) Our first approach to assessing the anticancer activity of the novel 1,4-naphthoquinone/4-quinolone conjugates 11a–f on breast cancer cells involved comparing their effects in the MTT cell viability assay to determine the half-maximal inhibitory concentration (IC50) in the 2D cell culture model. Doxorubicin and 1,4-naphthoquinone were used as controls. Concentration-response curves were obtained with the conjugates at concentrations ranging from 0 to 200 µM. […] This observation aligns with the structural characteristics of this derivative, which features the largest alkyl substituent at position R^1.
(§5) The IC50 values were calculated using GraphPad Prism v. 8.0.1, and the selectivity index was estimated as the ratio between the IC50 value of MCF10A/IC50 value of MDA-MB-231 or MCF-7 [33], for each compound.

MDA-MB-231 spheroids = assay: 3D-cell culture (spheroids), morphology and acid phosphatase viability, MDA-MB-231; assay type: cell-based, human; conditions: 25 µM, vs control, p < 0.05
Text: 3D-cell cultures display features that resemble in vivo tumors: due to their tridimensional structure, cells are not provided with the same amounts of oxygen and nutrients in the center as on the surface, resulting in a gradient that leads to the formation of a necrotic core, similar to the in vivo tumor environment. In the 3D-cell culture model used here, spheroids are formed due to low interaction with the microplate bottom, promoted by its coating with agarose, and strong cell-to-cell interactions in MCF-7 cells, generating a finely compact and homogeneous spheroid. For MDA-MB-231 cells, the addition of collagen I is an extra stimulus necessary for spheroid stabilization. Spheroids were prepared and grown for 48 h and then treated with the compounds at 25 µM. After 48 h, morphological changes were observed, and their viabilities were measured as described in Section 3. […] These findings are in line with the viability test, which detected a reduction in the viabilities for all of them, which is significant compared to the control (p < 0.05), except for 11a in MDA-MB-231 spheroids (Figure 8C,D). […]
The procedure was performed as described by Gong et al., with a few modifications. […] The cell spheroids/aggregates were treated with fresh medium added to the compounds and their viability was evaluated after 48 h. […]

MCF-7 spheroids = assay: 3D-cell culture (spheroids), morphology and acid phosphatase viability, MCF-7; assay type: cell-based, human; conditions: 25 µM, 48 h
Text: 3D-cell cultures display features that resemble in vivo tumors: due to their tridimensional structure, cells are not provided with the same amounts of oxygen and nutrients in the center as on the surface, resulting in a gradient that leads to the formation of a necrotic core, similar to the in vivo tumor environment. In the 3D-cell culture model used here, spheroids are formed due to low interaction with the microplate bottom, promoted by its coating with agarose, and strong cell-to-cell interactions in MCF-7 cells, generating a finely compact and homogeneous spheroid. For MDA-MB-231 cells, the addition of collagen I is an extra stimulus necessary for spheroid stabilization. Spheroids were prepared and grown for 48 h and then treated with the compounds at 25 µM. After 48 h, morphological changes were observed, and their viabilities were measured as described in Section 3. The exposure to the compounds for 48 h promoted visible changes in the morphologies of spheroids for both cell lines when compared to the controls (Figure 8). […] While it is more complicated to imply changes in the proliferative (surface) region of the MDA-MB-231 spheroids (Figure 8B), they are observed together with morphological changes after treatment, making them appear more crumbly and lose their round shape. These findings are in line with the viability test, which detected a reduction in the viabilities for all of them, which is significant compared to the control (p < 0.05), except for 11a in MDA-MB-231 spheroids (Figure 8C,D). We should also highlight that the concentrations necessary for an effect on spheroids are expected to be higher when compared to 2D-cell culture models. Here, we observed changes using 25 µM of each compound, as performed in the other experiments.
The procedure was performed as described by Gong et al., with a few modifications. A total of 5000 cells per well were plated on 96-well plates with bottoms previously covered with 50 µL of a 1% agarose solution. The plates were then centrifuged at 300× g for 10 min. For MDA-MB-231 cells, collagen I from rat tail (Gibco) was added to a 3 µg/mL final concentration in the cell suspension. […] The cell spheroids/aggregates were treated with fresh medium added to the compounds and their viability was evaluated after 48 h. Spheroids were photographed with an inverted microscope Bel INV-100 (Bel Engineering, Monza, Italy) equipped with a digital camera.
To measure spheroids viability, this viability assay was performed following Friedrich et al.. The medium was removed from wells and spheroids were washed with PBS. Then, 100 µL of a solution containing 2 mg/mL p-nitrophenyl phosphate (PNPP), 0.1 M citric acid, and 0.1% (v/v) Triton X, pH 5.0 were added. […]

MCF10A = assay: MTT cell viability assay, non-tumor MCF10A; conditions: for IC50: Homo sapiens, MCF-10A, 24 h, read-out: IC50 ± SEM MCF10A
MDA-MB-231 [11] = assay: MTT cell viability assay, MDA-MB-231 (2D culture); assay type: cell-based, human; conditions: for IC50: Homo sapiens, MDA-MB-231, MTT, 24 h treatment, 2D culture, read-out: IC50 ± SEM MDA-MB-231; for SI IC50 MCF10A/ IC50 MDA-MB-231: selectivity index
Procedure: as §4, §5

[12] = Solubility in the culture medium (inferred from MTT curves); assay type: physicochemical; conditions: concentrations >25 µM
Procedure: as §4

[13] = system: hepatocellular carcinoma (BEL7402); set-up: method as in PMID 22406451; conditions: cited from earlier work
[14] = system: gastric cancer cells ACP03; set-up: method as in PMID 24858098; conditions: cited from earlier work
MDA-MB-231 cells [15] = assay: Annexin V/PI apoptosis assay, MDA-MB-231; assay type: cell-based, human; conditions: 50 µM
Procedure: as §1, §2, §3

[16] = system: cervix adenocarcinoma (HeLa); set-up: method as in PMID 22406451; conditions: cited from earlier work
tumor = system: tumor; set-up: method as in PMID 18974148; conditions: 2 mg/kg (body weight), three weeks of treatment; cited from earlier work
[17] = system: non-tumorigenic prostate epithelial cells (RWPE-1); conditions: cited from earlier work
[18] = system: refractory invasive prostate cancer cells (DU145); set-up: method as in PMID 18974148; conditions: cited from earlier work
[19] = low concentrations (<25 µM), effect plateaus above 25 µM

Structure (SMILES): CSC(=NCn1c(C/C=C(\C)CCC=C(C)C)cc(=O)c2ccccc21)SC [Compound 4, intervenolin]
IC50 [1]: 7 µM
IC50 [2]: 3.7 µM
IC50 [3]: 0.5 µM
IC50 [4]: 0.4 µM

Structure (SMILES): Cc1ccc(NC(=O)c2ccc(NC3=C(Cl)C(=O)c4ccccc4C3=O)cc2)nc1 [Compound 7]
cytotoxicity against MCF-7 [5]: high cytotoxicity

Structure (SMILES): CCOC(=O)c1cn(CC)c2ccc(-n3cc(COC4=C(CC=C(C)C)C(=O)c5ccccc5C4=O)nn3)cc2c1=O [Compound 10]
activity against MDA-MB-231 (MDA-MB-231 [6]): demonstrated activity
activity against 4T1 (4T1): demonstrated activity
activity against MCF-7 (MCF-7 [7]): demonstrated activity
cytotoxicity against MCF10A [8]: no significant cytotoxicity

IC50 (MCF-7 [10]): 18.7 ± 1.1 µM
IC50 (MDA-MB-231 [11]): 9.16 ± 1 µM
Structure (SMILES): CCOC(=O)c1cn(CC)c2ccc(C3=CC(=O)c4ccccc4C3=O)cc2c1=O [Compound 11a, Ethyl 6-(1,4-dioxo-1,4-dihydronaphthalen-2-yl)-1-ethyl-4-oxo-1,4-dihydroquinoline-3-carboxylate]
colony formation, MDA-MB-231 (MDA-MB-231 cells [9]): most effective
early apoptosis induction (annexin V/PI), MCF-7 (MCF-7 cells): comparable
SI IC50 MCF10A/IC50 MCF-7 (MCF-7 [10]): 0.57 ± 0.12
spheroid viability (acid phosphatase), MDA-MB-231 (MDA-MB-231 spheroids): significant decrease was observed for all compounds, except for 11a
spheroid morphology, MCF-7 (MCF-7 spheroids): changes in the morphology
IC50 (MCF10A): 10.6 ± 1.2 µM
cytotoxicity effect in MCF10A compared with doxorubicin (MCF10A; relative to doxorubicin): seven times lower
SI IC50 MCF10A/ IC50 MDA-MB-231 (MDA-MB-231 [11]): 1.15 ± 0.15

melting point: > 300 °C
solubility in the medium [12]: low solubility
Structure (SMILES): O=C1C=C(c2ccc3c(c2)c(=O)c(C(=O)O)cn3Cc2ccccc2)C(=O)c2ccccc21 [Compound 11e, 1-benzyl-6-(1,4-dioxo-1,4-dihydronaphthalen-2-yl)-4-oxo-1,4-dihydroquinoline-3-carboxylic acid]
anticancer activity in MTT concentration-response curve, MCF-7 (MCF-7 [10]; [19]): comparable to the most active derivatives at low concentrations
anticancer activity in MTT concentration-response curve, MDA-MB-231 (MDA-MB-231 [11]; [19]): comparable to the most active derivatives at low concentrations

IC50 (MCF-7 [10]): 14.2 ± 1.1 µM
IC50 (MDA-MB-231 [11]): 2.76 ± 1.2 µM
Structure (SMILES): COc1cccc2c1C(=O)c1c(O)c3c(c(O)c1C2=O)C[C@@](O)(C(=O)CO)C[C@@H]3O[C@H]1C[C@H](N)[C@H](O)[C@H](C)O1 [Doxorubicin, reference compound]
IC50 [13]: 19.3 ± 1.2 µM
IC50 [14]: 0.274 µM
early apoptosis induction (annexin V/PI), MCF-7 (MCF-7 cells): shows early apoptosis but also shows late apoptosis/necrosis in a great proportion
SI IC50 MCF10A/IC50 MCF-7 (MCF-7 [10]): 0.10 ± 0.09
apoptosis profile (annexin V/PI), MDA-MB-231 (MDA-MB-231 cells [15]): effects similar to those seen on MCF-7 cells
IC50 [16]: 21.1 ± 1.9 µM
spheroid morphology, MCF-7 (MCF-7 spheroids): changes in the morphology
IC50 (MCF10A): 1.49 ± 1.3 µM
SI IC50 MCF10A/ IC50 MDA-MB-231 (MDA-MB-231 [11]): 0.54 ± 0.10

Structure (SMILES): CC1=CC(=O)c2c(O)cccc2C1=O [plumbagin]
tumor reduction (tumor): 90%
effect on RWPE-1 [17]: without affecting
apoptosis induction in DU145 [18]: selectively induces apoptosis
